Tests used:
AR = AR (Homo sapiens, UniProt P10275); settings: cited from earlier work
T877A AR mutant = T877A AR mutant (Homo sapiens, UniProt P10275, T878A); settings: literature; cited from earlier work
CYP1A2 = CYP1A2 (Homo sapiens, UniProt P05177); assay: In vitro effect on CYP; settings: therapeutically relevant concentrations
BCRP = BCRP (Homo sapiens, UniProt Q9UNQ0); settings: not told
OATP1B3 = OATP1B3 (Homo sapiens, UniProt Q9NPD5)
CYP2B6 = CYP2B6 (Homo sapiens, UniProt P20813)
CYP2D6 = CYP2D6 (Homo sapiens, UniProt P10635)
CYP2C8 = molecular target: T1, CYP2C8 (Homo sapiens, UniProt P10632)
T1 sequence (P10632 1-490): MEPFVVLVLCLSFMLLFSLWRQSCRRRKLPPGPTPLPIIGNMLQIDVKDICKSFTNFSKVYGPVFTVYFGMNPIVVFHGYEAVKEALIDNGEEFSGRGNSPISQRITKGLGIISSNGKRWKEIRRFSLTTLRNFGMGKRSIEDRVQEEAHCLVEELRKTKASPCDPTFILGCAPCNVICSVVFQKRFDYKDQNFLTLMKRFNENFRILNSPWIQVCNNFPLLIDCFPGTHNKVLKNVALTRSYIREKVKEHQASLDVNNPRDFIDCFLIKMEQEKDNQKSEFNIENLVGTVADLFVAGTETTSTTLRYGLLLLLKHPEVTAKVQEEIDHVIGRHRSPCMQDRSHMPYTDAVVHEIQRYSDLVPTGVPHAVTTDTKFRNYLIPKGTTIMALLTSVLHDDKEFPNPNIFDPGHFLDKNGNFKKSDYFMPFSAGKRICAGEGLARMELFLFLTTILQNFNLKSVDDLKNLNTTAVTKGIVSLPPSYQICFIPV

[1] = molecular target: organic cation transporter 2 (OCT2) (Homo sapiens, UniProt O15244)
OATP1B1 = OATP1B1 (Homo sapiens, UniProt Q9Y6L6)
Chain of OATP1B1 (Q9Y6L6 whole entry): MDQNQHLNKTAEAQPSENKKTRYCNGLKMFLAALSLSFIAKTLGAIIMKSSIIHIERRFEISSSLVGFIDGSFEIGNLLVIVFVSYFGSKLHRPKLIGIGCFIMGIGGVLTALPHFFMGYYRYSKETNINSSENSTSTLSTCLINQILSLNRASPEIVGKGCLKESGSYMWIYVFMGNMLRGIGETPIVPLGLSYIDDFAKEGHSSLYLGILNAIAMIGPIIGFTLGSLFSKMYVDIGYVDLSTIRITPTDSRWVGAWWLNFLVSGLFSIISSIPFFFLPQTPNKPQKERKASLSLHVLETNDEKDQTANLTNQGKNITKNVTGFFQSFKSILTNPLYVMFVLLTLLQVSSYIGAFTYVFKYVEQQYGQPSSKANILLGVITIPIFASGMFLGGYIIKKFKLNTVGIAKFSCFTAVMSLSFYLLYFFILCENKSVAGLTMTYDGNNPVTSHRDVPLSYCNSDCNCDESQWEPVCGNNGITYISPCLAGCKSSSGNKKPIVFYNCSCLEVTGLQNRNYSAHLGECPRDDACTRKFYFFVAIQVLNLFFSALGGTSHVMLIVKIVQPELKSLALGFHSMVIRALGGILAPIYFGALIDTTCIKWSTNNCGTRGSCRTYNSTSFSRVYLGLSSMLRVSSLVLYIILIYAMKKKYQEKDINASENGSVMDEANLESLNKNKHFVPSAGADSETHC

Plasma protein binding = format: in vitro ADME
[2] = molecular target: organic anion transporter 1 (Homo sapiens, UniProt Q4U2R8)
P-gp = P-gp (Homo sapiens, UniProt P08183); settings: not told
Chain of P-gp (P08183 whole entry): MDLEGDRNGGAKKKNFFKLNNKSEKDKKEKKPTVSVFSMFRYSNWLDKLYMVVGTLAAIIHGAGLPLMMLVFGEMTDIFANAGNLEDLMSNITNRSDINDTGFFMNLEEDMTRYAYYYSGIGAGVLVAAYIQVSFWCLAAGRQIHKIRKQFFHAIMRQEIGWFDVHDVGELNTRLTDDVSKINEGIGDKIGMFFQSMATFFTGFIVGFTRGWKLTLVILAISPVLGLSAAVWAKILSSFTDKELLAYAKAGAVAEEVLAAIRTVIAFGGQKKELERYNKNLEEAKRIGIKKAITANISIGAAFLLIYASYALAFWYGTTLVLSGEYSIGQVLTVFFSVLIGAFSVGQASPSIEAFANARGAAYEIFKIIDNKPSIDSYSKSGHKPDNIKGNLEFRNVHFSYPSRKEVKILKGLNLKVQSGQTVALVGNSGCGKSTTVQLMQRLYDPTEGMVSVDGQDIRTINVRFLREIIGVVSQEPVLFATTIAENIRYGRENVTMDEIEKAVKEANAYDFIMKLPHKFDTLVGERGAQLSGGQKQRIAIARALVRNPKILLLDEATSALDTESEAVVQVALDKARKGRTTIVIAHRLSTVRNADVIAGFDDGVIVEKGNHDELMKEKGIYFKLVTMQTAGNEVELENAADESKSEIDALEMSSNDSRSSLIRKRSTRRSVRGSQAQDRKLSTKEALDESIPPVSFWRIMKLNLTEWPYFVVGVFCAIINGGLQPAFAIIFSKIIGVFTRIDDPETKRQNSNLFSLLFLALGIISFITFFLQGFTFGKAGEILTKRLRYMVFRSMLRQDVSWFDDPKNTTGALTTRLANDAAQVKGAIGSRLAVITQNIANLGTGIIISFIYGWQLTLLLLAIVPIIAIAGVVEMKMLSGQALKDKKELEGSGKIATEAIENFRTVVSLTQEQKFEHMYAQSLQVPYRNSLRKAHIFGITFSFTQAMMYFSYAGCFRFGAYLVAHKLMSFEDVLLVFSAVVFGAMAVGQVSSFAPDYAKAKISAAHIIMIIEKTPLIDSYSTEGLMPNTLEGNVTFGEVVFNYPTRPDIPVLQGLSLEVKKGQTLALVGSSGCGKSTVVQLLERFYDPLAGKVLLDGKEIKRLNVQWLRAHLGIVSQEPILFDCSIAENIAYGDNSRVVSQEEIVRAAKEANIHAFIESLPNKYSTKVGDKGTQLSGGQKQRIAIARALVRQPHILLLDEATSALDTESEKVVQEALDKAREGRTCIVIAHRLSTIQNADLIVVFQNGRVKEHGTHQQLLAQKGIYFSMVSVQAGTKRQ

[3] = molecular target: organic anion transporter 3 (OAT3) (Homo sapiens, UniProt Q8TCC7)
Chain of organic anion transporter 3 (OAT3) (Q8TCC7 whole entry): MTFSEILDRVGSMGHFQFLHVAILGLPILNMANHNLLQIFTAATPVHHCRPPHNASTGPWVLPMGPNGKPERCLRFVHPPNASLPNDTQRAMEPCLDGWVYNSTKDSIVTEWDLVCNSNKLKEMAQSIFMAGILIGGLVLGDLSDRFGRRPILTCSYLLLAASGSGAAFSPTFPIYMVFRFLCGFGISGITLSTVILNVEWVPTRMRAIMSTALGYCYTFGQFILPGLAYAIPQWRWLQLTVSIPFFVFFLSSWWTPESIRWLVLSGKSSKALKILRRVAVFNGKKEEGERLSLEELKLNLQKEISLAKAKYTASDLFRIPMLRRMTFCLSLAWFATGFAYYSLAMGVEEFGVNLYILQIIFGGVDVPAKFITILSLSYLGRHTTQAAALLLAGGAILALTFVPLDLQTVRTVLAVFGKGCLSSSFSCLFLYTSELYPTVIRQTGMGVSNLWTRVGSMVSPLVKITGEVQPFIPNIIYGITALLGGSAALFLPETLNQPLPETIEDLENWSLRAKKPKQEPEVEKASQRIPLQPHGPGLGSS

[4] = Single oral administration of radiolabeled apalutamide (AUC share, excretion); format: in vivo
[5] = human, in vivo
CYP2C9 = CYP2C9 (Homo sapiens, UniProt P11712)
Chain of CYP2C9 (P11712 whole entry): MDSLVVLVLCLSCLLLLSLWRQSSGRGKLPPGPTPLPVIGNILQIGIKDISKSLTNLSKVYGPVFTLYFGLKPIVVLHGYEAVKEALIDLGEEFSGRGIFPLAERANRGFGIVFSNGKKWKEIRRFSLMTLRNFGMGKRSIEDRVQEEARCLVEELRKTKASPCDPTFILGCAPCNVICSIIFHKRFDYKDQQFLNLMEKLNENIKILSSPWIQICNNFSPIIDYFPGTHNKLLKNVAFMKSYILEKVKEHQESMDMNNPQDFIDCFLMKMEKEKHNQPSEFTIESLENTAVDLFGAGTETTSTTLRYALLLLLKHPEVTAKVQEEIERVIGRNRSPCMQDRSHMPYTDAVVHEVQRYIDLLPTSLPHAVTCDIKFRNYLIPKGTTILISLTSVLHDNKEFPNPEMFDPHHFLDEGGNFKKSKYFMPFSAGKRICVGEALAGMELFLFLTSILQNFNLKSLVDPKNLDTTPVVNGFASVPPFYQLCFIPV

CYP2C19 = CYP2C19 (Homo sapiens, UniProt P33261)
Chain of CYP2C19 (P33261 whole entry): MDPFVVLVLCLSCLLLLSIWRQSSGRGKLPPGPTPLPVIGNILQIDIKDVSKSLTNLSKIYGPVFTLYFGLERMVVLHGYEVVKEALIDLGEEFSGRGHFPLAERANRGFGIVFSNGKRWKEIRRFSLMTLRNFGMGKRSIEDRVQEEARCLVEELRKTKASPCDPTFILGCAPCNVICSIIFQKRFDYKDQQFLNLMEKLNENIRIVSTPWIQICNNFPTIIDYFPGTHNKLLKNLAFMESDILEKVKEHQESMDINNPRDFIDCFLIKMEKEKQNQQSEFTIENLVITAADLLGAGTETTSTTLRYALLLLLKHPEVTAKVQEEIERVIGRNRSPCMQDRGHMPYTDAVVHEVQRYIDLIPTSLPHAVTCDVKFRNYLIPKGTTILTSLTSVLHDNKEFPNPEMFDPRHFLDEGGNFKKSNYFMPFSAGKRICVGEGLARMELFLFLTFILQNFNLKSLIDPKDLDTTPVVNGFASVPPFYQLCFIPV

[6] = system: multidrug and toxin extrusions (MATEs); assay: In vitro transporter inhibition; format: in vitro ADME
CYP3A4 = CYP3A4 (Homo sapiens, UniProt P08684)
[7] = up to 70 days after single oral radiolabeled dose

Chain of CYP2B6 (P20813 whole entry): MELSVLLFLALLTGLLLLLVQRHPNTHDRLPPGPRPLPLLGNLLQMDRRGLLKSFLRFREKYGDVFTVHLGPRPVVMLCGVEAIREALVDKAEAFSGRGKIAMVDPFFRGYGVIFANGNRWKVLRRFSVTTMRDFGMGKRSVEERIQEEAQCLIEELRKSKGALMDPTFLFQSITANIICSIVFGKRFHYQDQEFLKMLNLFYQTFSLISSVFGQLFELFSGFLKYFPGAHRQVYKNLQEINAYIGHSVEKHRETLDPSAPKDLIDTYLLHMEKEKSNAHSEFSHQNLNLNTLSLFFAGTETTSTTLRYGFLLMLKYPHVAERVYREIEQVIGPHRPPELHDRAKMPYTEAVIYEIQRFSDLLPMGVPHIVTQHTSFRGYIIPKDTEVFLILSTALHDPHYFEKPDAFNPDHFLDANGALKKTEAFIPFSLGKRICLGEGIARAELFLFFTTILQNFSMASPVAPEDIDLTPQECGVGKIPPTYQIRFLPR
Chain of AR (P10275 whole entry): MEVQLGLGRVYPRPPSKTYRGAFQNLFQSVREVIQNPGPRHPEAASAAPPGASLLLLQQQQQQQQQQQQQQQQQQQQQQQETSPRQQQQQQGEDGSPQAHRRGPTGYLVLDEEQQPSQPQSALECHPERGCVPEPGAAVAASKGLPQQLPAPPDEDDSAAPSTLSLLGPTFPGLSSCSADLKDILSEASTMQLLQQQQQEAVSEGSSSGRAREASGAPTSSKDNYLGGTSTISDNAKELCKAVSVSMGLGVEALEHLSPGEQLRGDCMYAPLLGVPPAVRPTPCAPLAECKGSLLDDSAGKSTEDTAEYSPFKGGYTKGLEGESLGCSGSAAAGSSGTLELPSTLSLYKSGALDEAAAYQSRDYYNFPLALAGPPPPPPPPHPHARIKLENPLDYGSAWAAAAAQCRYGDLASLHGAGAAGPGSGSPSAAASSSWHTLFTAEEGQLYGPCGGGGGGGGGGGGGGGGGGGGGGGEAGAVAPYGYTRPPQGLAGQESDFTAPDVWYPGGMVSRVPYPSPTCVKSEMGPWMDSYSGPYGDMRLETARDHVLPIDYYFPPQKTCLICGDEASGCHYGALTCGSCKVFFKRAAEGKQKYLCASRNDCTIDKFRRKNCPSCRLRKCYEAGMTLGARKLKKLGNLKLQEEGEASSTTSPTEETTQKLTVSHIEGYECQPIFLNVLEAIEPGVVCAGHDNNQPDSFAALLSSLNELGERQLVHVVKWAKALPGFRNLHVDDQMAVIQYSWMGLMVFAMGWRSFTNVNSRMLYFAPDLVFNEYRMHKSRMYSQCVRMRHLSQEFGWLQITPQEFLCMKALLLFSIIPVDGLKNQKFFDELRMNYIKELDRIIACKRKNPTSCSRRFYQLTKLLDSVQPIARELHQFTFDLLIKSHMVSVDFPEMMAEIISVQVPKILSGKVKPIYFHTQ
Chain of T877A AR mutant (P10275 whole entry T878A): as the sequence (P10275 whole entry) above, with T878A counted along it

## CC(O)c1cc(C(=O)N[C@@H](C)Cn2ccc(-c3ccc(C#N)c(Cl)c3)n2)n[nH]1 (mixture of isomers) [Darolutamide, N-{(2S)-1-[3-(3-chloro-4-cyanophenyl)-1H-pyrazol-1-yl]propan-2-yl}-5-(1-hydroxyethyl)-1H-pyrazole-3-carboxamide]
AR
  Affinity of binding to AR: high affinity

## CC(C)(O)C(=O)Nc1ccc([N+](=O)[O-])c(C(F)(F)F)c1 [hydroxyflutamide]
T877A AR mutant
  Activity in T877A AR mutant: AR agonists

## N-desmethyl apalutamide
CYP1A2
  Effect on CYP1A2: do not affect
BCRP
  Substrate for BCRP: not
OATP1B3
  Substrate for OATP1B3: not
CYP2B6
  CYP2B6 inhibition: moderate inhibitors
CYP2D6
  Effect on CYP2D6: do not affect
CYP2C8
  CYP2C8 inhibition: moderate inhibitors
[1]
  Inhibition of OCT2: inhibit
OATP1B1
  Substrate for OATP1B1: not
Plasma protein binding
  Bound to plasma proteins: 95%
[2]
  Inhibition of organic anion transporter 1: do not inhibit
P-gp
  Substrate for P-gp: substrates
[3]
  Inhibition of OAT3: inhibit
[4]; single oral radiolabeled apalutamide 240 mg
  Share of the total AUC: 44%
[4]; [7]
  Dose recovered in feces as this compound: 2%
  Dose recovered in urine as this compound: 2.7%
[5]
  AUC at steady-state, mean: 124 µg·h/mL
  Cmax at steady-state, mean: 5900 ng/mL
  Pharmacokinetics in specific populations: No clinically significant differences
CYP2C9
  CYP2C9 inhibition: weak inhibitors
CYP2C19
  CYP2C19 inhibition: weak inhibitors
[6]
  Inhibition of MATEs: inhibit
CYP3A4
  CYP3A4 inhibition: weak inhibitors

— patent US12303497B2, “Anti-androgens for the treatment of metastatic castration-sensitive prostate cancer” (priority 2019, dated 2025)
